Bounds are passed on as bounds.

In the experiment the target is Glycogen synthase kinase-3 beta (Homo sapiens, UniProt P49841). The experiment in a line: concentration-response blocking of human GSK3B – biochemical, luminescence, cell-free homogeneous, retest, dose response (AID 434954).
Sequence of Glycogen synthase kinase-3 beta (P49841 whole entry): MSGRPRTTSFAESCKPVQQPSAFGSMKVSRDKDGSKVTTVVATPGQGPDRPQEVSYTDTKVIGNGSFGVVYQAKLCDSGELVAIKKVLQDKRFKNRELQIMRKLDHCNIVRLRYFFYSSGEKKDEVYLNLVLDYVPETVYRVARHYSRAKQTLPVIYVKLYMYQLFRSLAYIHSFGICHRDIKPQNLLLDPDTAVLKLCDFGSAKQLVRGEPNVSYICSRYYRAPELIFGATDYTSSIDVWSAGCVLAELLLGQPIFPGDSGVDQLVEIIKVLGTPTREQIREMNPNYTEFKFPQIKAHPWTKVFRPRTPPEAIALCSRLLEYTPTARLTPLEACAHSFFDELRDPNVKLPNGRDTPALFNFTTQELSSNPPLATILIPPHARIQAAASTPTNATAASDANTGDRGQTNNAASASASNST
The EC50 is the concentration needed to bring the measured effect to its halfway point. Read a high EC50 as lower potency in that assay. Turning to `COc1ccc(OC)c(Nc2nc(N)c([N+](=O)[O-])c(NCc3ccccc3)n2)c1` [N2-(2,5-dimethoxyphenyl)-5-nitro-N4-(phenylmethyl)pyrimidine-2,4,6-triamine], the EC50 is > 300 µM.
Consider `O=C(COc1ccccc1[N+](=O)[O-])NN=Cc1ccncc1`, for which the EC50 is > 300 µM.
Regarding `CCOC(=O)c1c(C)[nH]c(C)c1S(=O)(=O)N(C)CC(=O)Nc1ccccc1` [SMR000630545], the EC50 is > 300 µM.
For `Cc1ccc(C(=O)c2coc3ccc(O)c(CN(C)C)c23)cc1` [(4-Dimethylaminomethyl-5-hydroxy-benzofuran-3-yl)-p-tolyl-methanone], the EC50 was > 300 µM.
For the compound `CCOC(=O)c1sc(NC(=O)CCN2C(=O)c3cccc([N+](=O)[O-])c3C2=O)c(C(=O)OCC)c1C` [3-methyl-5-[[3-(4-nitro-1,3-dioxo-2-isoindolyl)-1-oxopropyl]amino]thiophene-2,4-dicarboxylic acid diethyl ester], the EC50 was > 300 µM.
As to `O=C(O)c1cccc(Nc2ccnc(Nc3cccc(C(=O)O)c3)n2)c1` [MLS001213333], the EC50 is > 300 µM.
To `CCN(CC)C(=O)COC(=O)c1ccc(O)cc1` [[2-(diethylamino)-2-oxoethyl] 4-hydroxybenzoate] belongs > 300 µM; to `O=C(Nc1ccncc1)c1ccccc1-c1ccccc1` [MLS000672259], 14.5 µM.
Consider `O=Cc1cn(CCC(=O)O)nc1-c1cccc(Cl)c1`, for which the EC50 was > 300 µM.
The result for `Cn1ncc(Br)c1C(=O)Nc1cccc(C(F)(F)F)c1` [MLS000711234] reads > 300 µM.
Turning to `O=C(Cn1cc[n+](CC(=O)c2ccc(Cl)cc2Cl)c1)c1ccc(Cl)cc1Cl` [1,3-Bis-[2-(2,4-dichloro-phenyl)-2-oxo-ethyl]-3H-imidazol-1-ium], the EC50 was > 300 µM.
In the case of `Cc1ccc2nc(-c3ccc4c(c3)NC(=O)CO4)cn2c1` [6-(6-methyl-2-imidazo[1,2-a]pyridinyl)-4H-1,4-benzoxazin-3-one], the EC50 is > 300 µM.
As to `O=C(Nc1ccc2c(c1)OCO2)Nc1ccccn1` [N-1,3-benzodioxol-5-yl-N'-2-pyridinylurea], the EC50 is > 300 µM.
To `Cc1ccc(N(c2ncnc(N)c2[N+](=O)[O-])C2CCCCC2)cc1` [N-cyclohexyl-N-(4-methylphenyl)-5-nitro-4,6-pyrimidinediamine] belongs > 300 µM; to `Cc1nc[nH]c1C(=O)NN=Cc1c(Cl)cccc1Cl` [MLS001182271], 21.8 µM.
On to `O=C1OCCC1Sc1nnc(-c2ccc(O)cc2)o1` (stereo unspecified) [3-[[2-(4-oxo-1-cyclohexa-2,5-dienylidene)-3H-1,3,4-oxadiazol-5-yl]thio]-2-oxolanone], for which the EC50 amounted to 14.3 µM.
The result for `CCOC(=O)c1ccc(NS(=O)(=O)c2ccc3c(c2)NC(=O)CCS3)cc1` [SMR000630284] reads > 300 µM.
To `O=C(/[O+]=N/[CH-]c1ccc(N2CCCCC2)c([N+](=O)[O-])c1)c1ccc(Cl)cc1Cl` [MLS000326612] belongs > 300 µM; to `CCN(CC)Cc1c(C(=O)NN=Cc2ccc(C)o2)nnn1-c1nonc1N` [1-(4-amino-1,2,5-oxadiazol-3-yl)-5-(diethylaminomethyl)-N-[(5-methylfuran-2-yl)methylideneamino]triazole-4-carboxamide], 23 µM; to `COc1ccc2nc3c(cc2c1)c(NC(=O)c1cccs1)nn3CC(C)C` [MLS000041975], 0.0951 µM.
As to `COCCn1c(SCC(=O)NC(=O)NCc2ccccc2)nc2ccccc21` [MLS000053169], the EC50 was > 300 µM.
As to `Cc1cc(CNC(=O)C(C)n2cc([N+](=O)[O-])cn2)c2ccccc2n1` (stereo unspecified) [SMR000307388], the EC50 was > 300 µM.
The compound `O=[N+]([O-])c1c(-c2cn[nH]c2)n[nH]c1-c1cn[nH]c1` [SMR000289595] showed an EC50 of 13.6 µM.
For `COC(=O)c1nnn(-c2nonc2N)c1CSc1ccc(Cl)cc1`, the midpoint of the response, the EC50, lay at 15.9 µM.
As to `Cc1occc1C(=O)N1CCN(C(=O)C2CCCO2)CC1` (stereo unspecified) [1-(2-methyl-3-furoyl)-4-(tetrahydro-2-furanylcarbonyl)piperazine], the EC50 was > 300 µM.
Regarding `COc1ccc(OC)c(C(O)c2coc3ccc(O)c(CN(C)C)c23)c1` (stereo unspecified), the EC50 was > 300 µM.
`CSc1nc(SCC(N)=O)c2c3c(sc2n1)CN(C)CC3` came in with an EC50 of 5.08 µM.
To `O=[N+]([O-])c1ccc(Cl)cc1NCCCN1CCOCC1` belongs > 300 µM; to `COc1ccc2c(c1)C(=O)Nc1cc(Cl)ccc1N2` [8-chloro-2-methoxy-5,10-dihydro-11H-dibenzo[b,e][1,4]diazepin-11-one], > 300 µM; to `O=C(CSc1nnc(-c2ccco2)n1Cc1ccco1)N1CCOCC1` [2-(5-Furan-2-yl-4-furan-2-ylmethyl-4H-[1,2,4]triazol-3-ylsulfanyl)-1-morpholin-4-yl-ethanone], > 300 µM.
With `O=C(NNC(=O)C1[C@H]2CCCC[C@@H]12)c1ccc(=O)oc1` (stereo partly specified) [MLS000768334], the EC50 was > 300 µM.
Regarding `O=C(CSc1n[nH]c(=O)[nH]c1=O)c1ccc(Cl)cc1Cl` [6-[2-(2,4-dichlorophenyl)-2-oxoethyl]sulfanyl-2H-1,2,4-triazine-3,5-dione], the EC50 is > 300 µM.
Compound `COc1cc(C=C2SC(Nc3ccc(O)cc3)=NC2=O)ccc1O` [MLS000778276] showed an EC50 of 23.3 µM.
To `CCOC(=O)c1nnn(-c2nonc2N)c1CSc1ccccc1` [ethyl 1-(4-amino-1,2,5-oxadiazol-3-yl)-5-[(phenylthio)methyl]-1H-1,2,3-triazole-4-carboxylate] belongs 14.7 µM; to `CCC(NC(=O)Cc1c(C)c2cc3c(cc2oc1=O)OC(C)(C)CC3)C(=O)O` (stereo unspecified) [MLS001215946], > 300 µM; to `C[O+]=N[CH-]c1ccc(N2CCOCC2)c([N+](=O)[O-])c1` [N-methoxy-1-(4-morpholin-4-yl-3-nitro-phenyl)methanimine], > 300 µM.
Compound `CC(C)=CCc1cc([C@@H]2CC(=O)c3ccc(O)c(CC=C(C)C)c3O2)ccc1O` [MLS000697605] came in with an EC50 of 58.4 µM.
Take `COc1ccc(C2C3=C(CC(C)(C)CC3=O)Nc3c2c(=O)nc2nc(C)[nH]n32)cc1` (stereo unspecified) [SMR000035838]: the EC50 is > 300 µM.
On to `COc1ccccc1/C=C/C=C1\Oc2c(ccc(O)c2CN2CCN(CCO)CC2)C1=O` [(2Z)-7-[[4-(2-hydroxyethyl)piperazin-1-yl]methyl]-2-[(E)-3-(2-methoxyphenyl)prop-2-enylidene]-6-oxidanyl-1-benzofuran-3-one], for which the EC50 is > 300 µM.
With `CCC(OCC(O)CN1CCCCC1)c1ccccc1` (stereo unspecified), the EC50 is > 300 µM.
With `CCOC(=O)c1nnn(CC(=O)Nc2cccc(OC)c2)c1C(=O)OCC`, the EC50 was > 300 µM.
As for `Cc1nn(C)c(C)c1S(=O)(=O)N(CC(=O)Nc1nccs1)c1ccc(C(C)C)cc1` [MLS000118397], the EC50 was > 300 µM.
With `Cn1c(SCc2ccccc2C#N)nnc1-c1ccncc1` [2-(4-Methyl-5-pyridin-4-yl-4H-[1,2,4]triazol-3-ylsulfanylmethyl)-benzonitrile], the EC50 was > 300 µM.
The result for `O=C(NCC(c1ccco1)N1CCOCC1)c1cccc(Cl)c1` (stereo unspecified) [SMR000808258] reads > 300 µM; that for `Clc1ccc2c(c1)Nc1ccccc1CC2` [3-chloro-10,11-dihydro-5H-dibenzo[b,f]azepine], > 300 µM.
To `CCCCc1cc(=O)oc2cc(C)cc(OC(C)C(=O)O)c12` (stereo unspecified) [SMR000043773] belongs > 300 µM; to `CC1=Nc2ncnn2C(c2c[nH]c3ccccc23)C1C(=O)OC(C)C` (stereo unspecified), 1.81 µM; to `Cc1cccn2c(=O)nc(SCC(=O)NC3CCCCC3)nc12`, > 300 µM.
In the case of `Cc1[nH]nc2c1C(c1cccc(O)c1)C1C(=O)CC(C)(C)CC1=N2` (stereo unspecified) [MLS000081979], the EC50 turned out to be 0.421 µM.
To `O=C(CC1NCCNC1=O)Nc1cc(Cl)cc(Cl)c1` (stereo unspecified) [N-(3,5-dichlorophenyl)-2-(3-oxopiperazin-2-yl)acetamide] belongs > 300 µM.
As to `O=C(O)c1cccc(Nc2nc(-c3ccccc3)nc3ccccc23)c1` [SMR000538934], the EC50 is > 300 µM.
On to `Cc1ccc(S(=O)(=O)CCSc2n[nH]c(=O)n2-c2ccc3c(c2)OCCO3)cc1` [SMR000456166], for which it took 74.4 µM to reach a half-maximal effect (EC50).
For `Clc1ccc(-c2nnc(-c3ccccc3)c(N3CCSCC3)n2)cc1`, the EC50 was > 300 µM.
As for `Cc1ccc(NS(=O)(=O)c2cccc(C(=O)NN=Cc3c(C)nn(-c4ccccc4)c3N3CCCC3)c2)c(C)c1` [MLS000394744], the EC50 was > 300 µM.
The result for `CN1CCN(c2nc(-c3ccccc3)nc(-c3ccccc3)c2C#N)CC1` [4-(4-methylpiperazin-1-yl)-2,6-diphenyl-pyrimidine-5-carbonitrile] reads > 300 µM; that for `CC(Sc1ccc2nnc(-c3ccc(F)cc3)n2n1)C(=O)O` (stereo unspecified) [2-[[3-(4-fluorophenyl)-[1,2,4]triazolo[4,3-b]pyridazin-6-yl]sulfanyl]propanoic acid], 21.4 µM.
Turning to `CCCn1nc(NC(=O)CC(C)C)c2cc3ccccc3nc21` [SMR000043522], the EC50 was > 300 µM.
For `COc1cccc(N(C(=O)C[S+]([O-])CC(=O)Nc2ccc(F)cc2)C(C(=O)NC2CCCCC2)c2cccs2)c1` (stereo unspecified) [MLS000566826], the EC50 was > 300 µM.
Turning to `N#Cc1c(N)nc2c(c1N)=C(N)SC1=NC(=O)CC(c3ccccc3)C=21` (stereo unspecified) [SMR000147833], the EC50 is > 300 µM.
Regarding `COc1ccc(CCNc2nc(-c3ccc(O)cc3)cs2)cc1OC` [SMR000502906], the EC50 is > 300 µM.
The result for `O=C(Nc1cccnc1)c1sc(Nc2ccccc2)nc1-c1ccccc1` [SMR000261858] reads > 300 µM; that for `CCOC(=O)COc1ccc(C(=O)c2ccccc2)c(O)c1` [(4-Benzoyl-3-hydroxy-phenoxy)-acetic acid ethyl ester], > 300 µM; that for `O=C(c1ccccc1)c1ccc(NCCCn2ccnc2)c([N+](=O)[O-])c1` [SMR000588423], 6.85 µM.
In the case of `COc1ccc(Nc2oc(COc3ccccc3F)nc2C#N)cc1`, the EC50 was > 300 µM.
In turn, `CCOC(=O)c1nnn(-c2nonc2N)c1-c1ccc(C)cc1` [ethyl 1-(4-amino-1,2,5-oxadiazol-3-yl)-5-(4-methylphenyl)triazole-4-carboxylate] displayed an EC50 of 51 µM.
Take `Nc1nonc1-n1nnc(C(=O)NN=Cc2ccc(OCc3ccccc3F)cc2)c1CN1CCCCC1` [SMR000646487]: the EC50 is > 300 µM.

The values are drawn from BindingDB's records for doi:10.7270/Q2TX3CTT (Broad Institute, 2010).
